What all share (format): in vivo
The test system of data set [1] is common mosquito (Culex pipiens pallens). The data set is described as follows: Emergence inhibition test on last instar mosquito larvae (Test example 1). To be noted: 0.01 ppm in water; 20 last instar larvae bred until emergence; two replications. The method, then:
The emulsifiable concentrates of the following test compounds obtained according to Formulation example 1 were each diluted with water to a concentration of 0.01 ppm. Thereafter, 100 ml of each dilute solution thus obtained was put in a 180-ml polyethylene cup, and 20 last instar larvae of common mosquito (Culex pipiens pallens) were liberated therein. The larvae were bred on a bait until emergence to obtain an emergence inhibitory ratio (two replications).

Data set [2] deals with carmine spider mite (Tetranchus cinnabarinus). As to the kind of experiment: Sterilization test on sprayed female adults, egg hatchability (Test example 4). To be noted: 100 ppm, 3 ml sprayed on female adults; oviposition three days; hatchability after six days at 27°C. The method, then:
The emulsifiable concentrates of the following test compounds obtained according to Formulation example 1 were each diluted with water to a concentration of 100 ppm to obtain a dilute solution of each emulsifiable concentrate. Thirty female adults of carmine spider mite (Tetranchus cinnabarinus) were transferred onto a leaf in a petri dish, and 3 ml of the dilute solution was sprayed thereon. After air-drying, 18 female adults were transferred onto untreated leaves in a petri dish, and allowed to oviposit for three days. The eggs obtained were stored in a chamber controlled at 27°C in an artificial weather room. After six days, hatchability of the eggs was examined to obtain a sterilization ratio.

The subject of data set [3] is carmine spider mite (Tetranychus cinnabarinus). As to the kind of experiment: Degree of mite damage on potted kidney bean after spray and soil treatment (Test example 5). Also noted: key: -: Little damage is observed.; +: Slight damage is observed.; ++: Same damage as in the untreated plot is observed. The conditions noted are these: 500 ppm, 10 ml sprayed on plant, 2 ml on pot soil, after 20 days. The method, then:
Ten female adults of carmine spider mite (Tetranychus cinnabarinus) were transferred onto each leaf of potted kidney bean in a primary leaf stage, which had elapsed seven days after sowing, and stored in a constant-temperature room kept at 25°C. After six days, the emulsifiable concentrate of the following test compounds formulated according to Formulation example 1 was diluted with water so that the active ingredient concentration was 500 ppm. Ten milliliters of the dilute solution was sprayed onto the plant on a turn table by a spray gun, and 2 ml of the diluted solution was treated on the pot soil. After 20 days, the degree of damage of each kidney bean by mites was examined.
The degree of damage was classified into three stages, -, + and ++. - : Little damage is observed. + : Slight damage is observed. ++: Same damage as in the untreated plot is observed.

Data set [4] concerns tobacco cutworm (Spodoptera litura). As to the kind of experiment: Mortality test on fourth instar larvae with treated artificial diet (Test example 2). To be noted: 50 ppm, 2 ml on 13 g artificial diet, after six days, two replications, 8640 min. The source says: The emulsifiable concentrates of the following test compounds obtained according to Formulation example 1 were each diluted with water to a concentration of 50 ppm. Two milliliters of each dilute solution thus obtained was applied onto 13 g of artificial diet for tobacco cutworm (Spodoptera litura) which were then put in a polyethylene cup of 11 cm in diameter. Then, ten fourth instar larvae of tobacco cutworm were liberated in the cup. After six days, the dead and alive were examined to obtain mortality (two replications).

Data set [5] concerns carmine spider mite (Tetranychus cinnabarinus). As to the kind of experiment: Adult emergence inhibition test on sprayed deutonymphs (Test example 3). To be noted: 3 ml sprayed, after three days. The method, then: The emulsifiable concentrates of the following test compounds obtained according to Formulation example 1 were each diluted with water to a pre-determined concentration to obtain a dilute solution of each emulsifiable concentrate. From 20 to 60 deutonymphs of carmine spider mite (Tetranychus cinnabarinus) were transferred onto leaves in a petri dish, and 3 ml of the dilute solution was sprayed thereon. After three days, the number of the adults was counted to obtain an adult emergence inhibitory ratio.

On to `O=C(NC(=O)c1c(F)cccc1F)Nc1cc(Cl)c(Nc2ccc(OC(F)(F)F)cc2)c(Cl)c1` [(1), N-2,6-difluorobenzoyl-Nʹ-3,5-dichloro-4-[4-(trifluoromethoxy)anilino]phenylurea], for which, in data set [1], the “Emergence inhibitory ratio (%)” value is listed as 100%. Further, the “Sterilization ratio (%)” value in data set [2] amounted to 98%. In addition, the Degree of damage entry in data set [3] is reported as “-”. In addition, the “Mortality (%)” value in data set [4] was determined as 100%. Also, the “Concentration and adult emergence inhibitory ratio (%) 100 ppm” value in data set [5] amounted to 100%. Besides, the “Concentration and adult emergence inhibitory ratio (%) 500 ppm” value in data set [5] (500 ppm) turned out to be 94%.

As to `O=C(NC(=O)c1c(F)cccc1F)Nc1cc(Cl)c(Nc2ccc(OC(F)(F)C(F)F)cc2)c(Cl)c1` [(3), N-2,6-difluorobenzoyl-Nʹ-3,5-dichloro-4-[4-(1,1,2,2-tetrafluoroethoxy)anilino]phenylurea], the “Emergence inhibitory ratio (%)” value in data set [1] is recorded as 100%. Also, the “Sterilization ratio (%)” value in data set [2] is reported as 95%. The “Mortality (%)” value in data set [4] worked out at 100%. In data set [5], the “Concentration and adult emergence inhibitory ratio (%) 100 ppm” value is recorded as 91%.
